Data as given in the NIST ThermoML archive (doi:10.1016/j.jct.2018.10.006).
Numbers after ± are expanded uncertainties.

Assay: Molar enthalpy of transition or fusion
Conditions: Crystal 2; DSC

O=P([O-])([O-])[O-].[Cs+].[Ni+2] [cesium nickel monophosphate]
Molar enthalpy of transition or fusion: 0.336 ± 0.0287 kcal/mol
